Laboratory results as given in PubChem BioAssay (NCI).
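Grown in 96-well plates, cells were treated for 48 hours with each compound at five concentrations. Insufficient inhibition: endpoint recorded as highest concentration tested. TGI: total growth inhibition.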

Key:
Test in all cases: inhibition of tumour cell growth, NCI panel, 48 h
DMS 273 small cell lung = tested on: DMS 273 small cell lung
XF 498 CNS = tested on: XF 498 CNS
KM20L2 colon = tested on: KM20L2 colon
LOX IMVI melanoma = tested on: LOX IMVI melanoma
SW-620 colon = tested on: SW-620 colon
A549 NSCLC = tested on: A549 NSCLC
NCI-H522 lung = tested on: NCI-H522 lung
BT-549 breast = tested on: BT-549 breast
NCI/ADR-RES ovarian = tested on: NCI/ADR-RES ovarian
MDA-MB-435 = tested on: MDA-MB-435

O=C(Cc1ccccc1)NN1C(=O)C(Cl)C1c1cc(Br)ccc1O (stereo not drawn) was tested, and the TGI (DMS 273 small cell lung) was > 100 µM, the TGI (XF 498 CNS) was > 100 µM and the TGI (KM20L2 colon) was > 100 µM. For the same compound, the TGI (LOX IMVI melanoma) was > 100 µM, the TGI (SW-620 colon) was > 100 µM and the TGI (A549 NSCLC) was > 100 µM. For the same compound, the TGI (NCI-H522 lung) was > 100 µM.

With COc1cc(C(C)O)c[n+](CCc2c[nH]c3ccccc23)c1 (stereo not drawn) the TGI (DMS 273 small cell lung) was > 100 µM, the TGI (XF 498 CNS) was > 100 µM and the TGI (KM20L2 colon) was > 100 µM. For the same compound, the TGI (LOX IMVI melanoma) was > 100 µM, the TGI (SW-620 colon) was > 100 µM and the TGI (A549 NSCLC) was > 100 µM. The TGI (NCI-H522 lung) was > 100 µM.

CCOC(=O)C1=C(C)N(NC(=O)Nc2ccccc2)C(=O)C1=P(c1ccccc1)(c1ccccc1)c1ccccc1 was tested, and the TGI (DMS 273 small cell lung) was > 100 µM, the TGI (XF 498 CNS) was 95.3 µM and the TGI (KM20L2 colon) was > 100 µM. The TGI (LOX IMVI melanoma) was > 100 µM, the TGI (SW-620 colon) was > 100 µM and the TGI (A549 NSCLC) was > 100 µM. It also gave a TGI (NCI-H522 lung) of 63.8 µM.

With C1=CC2SSSC2C1 (stereo not drawn) the TGI (DMS 273 small cell lung) was > 100 µM, the TGI (XF 498 CNS) was > 100 µM and the TGI (KM20L2 colon) was > 100 µM. For the same compound, the TGI (LOX IMVI melanoma) was > 100 µM, the TGI (SW-620 colon) was > 100 µM and the TGI (A549 NSCLC) was > 100 µM. For the same compound, the TGI (NCI-H522 lung) was > 100 µM.

CCOC(=O)CC1(C(=O)OCC)c2[nH]c3ccccc3c2CCN1Cc1ccccc1 (stereo not drawn) gave a TGI (DMS 273 small cell lung) of 32 µM, a TGI (XF 498 CNS) of 41.4 µM and a TGI (KM20L2 colon) of 32.5 µM. The TGI (LOX IMVI melanoma) was 32.9 µM, the TGI (SW-620 colon) was > 100 µM and the TGI (A549 NSCLC) was 40.3 µM. For the same compound, the TGI (NCI-H522 lung) was 28.1 µM.

With Cc1ccc(C2=C(c3ccccc3)C(Br)(c3ccc(C)cc3)C(c3ccccc3)=C2c2ccc(C)cc2)cc1 the TGI (DMS 273 small cell lung) was > 100 µM, the TGI (XF 498 CNS) was > 100 µM and the TGI (KM20L2 colon) was > 100 µM. For the same compound, the TGI (LOX IMVI melanoma) was > 100 µM, the TGI (SW-620 colon) was > 100 µM and the TGI (A549 NSCLC) was > 100 µM.

COc1cc(C=C2C(=O)NC(=O)NC2=O)cc(OC)c1OC was tested, and the TGI (DMS 273 small cell lung) was > 100 µM, the TGI (XF 498 CNS) was > 100 µM and the TGI (KM20L2 colon) was > 100 µM. The TGI (LOX IMVI melanoma) was > 100 µM, the TGI (SW-620 colon) was > 100 µM and the TGI (A549 NSCLC) was > 100 µM. The TGI (NCI-H522 lung) was > 100 µM.

Cc1nc(N)sc1C(=O)/C=C\c1ccc2c(c1)OCO2 was tested, and the TGI (DMS 273 small cell lung) was > 100 µM, the TGI (XF 498 CNS) was > 100 µM and the TGI (KM20L2 colon) was > 100 µM. For the same compound, the TGI (LOX IMVI melanoma) was > 100 µM, the TGI (SW-620 colon) was > 100 µM and the TGI (A549 NSCLC) was > 100 µM. The TGI (NCI-H522 lung) was > 100 µM.

COC(=O)C1=C(C)N(NC(=O)OC(C)(C)C)C(=O)C1=P(c1ccccc1)(c1ccccc1)c1ccccc1 was tested, and the TGI (DMS 273 small cell lung) was > 100 µM, the TGI (XF 498 CNS) was > 100 µM and the TGI (KM20L2 colon) was > 100 µM. For the same compound, the TGI (LOX IMVI melanoma) was > 100 µM, the TGI (SW-620 colon) was > 100 µM and the TGI (A549 NSCLC) was > 100 µM. For the same compound, the TGI (NCI-H522 lung) was > 100 µM.

In the case of Cc1cc(Cl)ccc1N=C1NC(=O)C(CC(=O)Nc2ccc([N+](=O)[O-])cc2[N+](=O)[O-])S1 (stereo not drawn), the TGI (DMS 273 small cell lung) was 82.7 µM, the TGI (XF 498 CNS) was 53.6 µM and the TGI (KM20L2 colon) was > 100 µM. The TGI (LOX IMVI melanoma) was > 100 µM, the TGI (SW-620 colon) was > 100 µM and the TGI (A549 NSCLC) was 85.9 µM.

With O=C(O)C1OC(n2cc(F)c(=O)[nH]c2=O)CC1O (stereo not drawn) the TGI (BT-549 breast) was > 100 µM, the TGI (NCI/ADR-RES ovarian) was > 100 µM and the TGI (DMS 273 small cell lung) was > 100 µM. The TGI (XF 498 CNS) was > 100 µM, the TGI (KM20L2 colon) was > 100 µM and the TGI (LOX IMVI melanoma) was > 100 µM. For the same compound, the TGI (MDA-MB-435) was > 100 µM, the TGI (SW-620 colon) was > 100 µM and the TGI (A549 NSCLC) was > 100 µM. The TGI (NCI-H522 lung) was > 100 µM.
